Measurements published in ChEMBL document CHEMBL1671738, “In vitro pharmacokinetic and pharmacodynamic evaluation of S-013420 against Haemophilus influenzae and Streptococcus pneumoniae” (Antimicrob Agents Chemother, 2010).
≈ marks a conversion by molar mass, not a printed value.

How the values were obtained:
Haemophilus influenzae [1] = assay: %TMIC in Haemophilus influenzae SR24169 clinical isolate based on viable cell reduction at 24 hrs index by maximum antibacterial activity criteria based in vitro pharmacodynamic model; type: functional
Streptococcus pneumoniae [2] = assay: Cmax in erythromycin-resistant Streptococcus pneumoniae SR26132 clinical isolate expressing ermB gene in vitro pharmacodynamic model; type: ADME, organism-based; conditions: in vivo
Streptococcus pneumoniae [3] = assay: Maximum antibacterial activity against erythromycin-susceptible Streptococcus pneumoniae SR26229 clinical isolate based on area above the killing curve index in vitro pharmacodynamic model; type: ADME, organism-based; conditions: in vivo
Streptococcus pneumoniae [4] = assay: Ratio of AUC (0 to 24 hrs) to MIC in erythromycin-resistant Streptococcus pneumoniae SR26132 clinical isolate expressing ermB gene by bacteriostatic effect criteria based in vitro pharmacodynamic model; type: functional
Haemophilus influenzae [5] = assay: Ratio of AUC (0 to 24 hrs) to MIC in Haemophilus influenzae SR24169 clinical isolate based on viable cell reduction at 24 hrs index by minimum antibacterial activity criteria based in vitro pharmacodynamic model; type: functional
Streptococcus pneumoniae [6] = assay: AUC (0 to 24 hrs) in erythromycin-resistant Streptococcus pneumoniae SR26143 clinical isolate expressing mefA in vitro pharmacodynamic model; type: ADME, organism-based; design: time < 24 hr; conditions: in vivo
Haemophilus influenzae [7] = assay: Ratio of AUC (0 to 24 hrs) to MIC in Haemophilus influenzae SR24169 clinical isolate by bacteriostatic effect criteria based in vitro pharmacodynamic model; type: functional
Haemophilus influenzae [8] = assay: Ratio of Cmax to MIC in Haemophilus influenzae SR24169 clinical isolate based on area above the killing curve index by minimum antibacterial activity criteria based in vitro pharmacodynamic model; type: functional
Streptococcus pneumoniae [9] = assay: Half life in erythromycin-resistant Streptococcus pneumoniae SR26132 clinical isolate expressing ermB gene in vitro pharmacodynamic model; type: ADME, organism-based; conditions: in vivo
Streptococcus pneumoniae [10] = assay: Half life in erythromycin-resistant Streptococcus pneumoniae SR26143 clinical isolate expressing mefA gene in vitro pharmacodynamic model; type: ADME, organism-based; conditions: in vivo
Streptococcus pneumoniae [11] = assay: Antibacterial activity against erythromycin-resistant Streptococcus pneumoniae SR26132 clinical isolate expressing ermB gene by broth microdilution method; type: functional
Streptococcus pneumoniae [12] = assay: Minimum antibacterial activity against erythromycin-susceptible Streptococcus pneumoniae SR26229 clinical isolate based on viable cell reduction at 24 hrs index in vitro pharmacodynamic model; type: ADME, organism-based
Streptococcus pneumoniae [13] = assay: Half maximum antibacterial activity against erythromycin-resistant Streptococcus pneumoniae SR26143 clinical isolate expressing mefA gene based on area above the killing curve index in vitro pharmacodynamic model; type: ADME, organism-based; conditions: in vivo
Streptococcus pneumoniae [14] = assay: Ratio of AUC (0 to 24 hrs) to MIC in erythromycin-resistant Streptococcus pneumoniae SR26143 clinical isolate expressing mefA gene by maximal efficacy criteria based in vitro pharmacodynamic model; type: functional
Streptococcus pneumoniae [15] = assay: Maximum antibacterial activity against erythromycin-resistant Streptococcus pneumoniae SR26143 clinical isolate expressing mefA gene based on viable cell reduction at 24 hrs index in vitro pharmacodynamic model; type: ADME, organism-based
Haemophilus influenzae [16] = assay: Ratio of AUC (0 to 24 hrs) to MIC in Haemophilus influenzae SR24169 clinical isolate based on viable cell reduction at 24 hrs index by half maximum antibacterial activity criteria based in vitro pharmacodynamic model; type: functional
Streptococcus pneumoniae [17] = assay: Half maximum antibacterial activity against erythromycin-resistant Streptococcus pneumoniae SR26143 clinical isolate expressing mefA gene based on viable cell reduction at 24 hrs index in vitro pharmacodynamic model; type: ADME, organism-based
Streptococcus pneumoniae [18] = assay: Ratio of AUC (0 to 24 hrs) to MIC in erythromycin-resistant Streptococcus pneumoniae SR26143 clinical isolate expressing mefA gene by bacteriostatic effect criteria based in vitro pharmacodynamic model; type: functional
Streptococcus pneumoniae [19] = assay: Half maximum antibacterial activity against erythromycin-resistant Streptococcus pneumoniae SR26132 clinical isolate expressing ermB gene based on viable cell reduction at 24 hrs index in vitro pharmacodynamic model; type: ADME, organism-based
Streptococcus pneumoniae [20] = assay: AUC (0 to 24 hrs) in erythromycin-susceptible Streptococcus pneumoniae SR26229 clinical isolate in vitro pharmacodynamic model; type: ADME, organism-based; design: time < 24 hr; conditions: in vivo
Streptococcus pneumoniae [21] = assay: Half maximum antibacterial activity against erythromycin-susceptible Streptococcus pneumoniae SR26229 clinical isolate based on area above the killing curve index in vitro pharmacodynamic model; type: ADME, organism-based; conditions: in vivo
Streptococcus pneumoniae [22] = assay: Maximum antibacterial activity against erythromycin-resistant Streptococcus pneumoniae SR26132 clinical isolate expressing ermB gene based on area above the killing curve index in vitro pharmacodynamic model; type: ADME, organism-based; conditions: in vivo
Haemophilus influenzae [23] = assay: %TMIC in Haemophilus influenzae SR24169 clinical isolate based on viable cell reduction at 24 hrs index by minimum antibacterial activity criteria based in vitro pharmacodynamic model; type: functional
Haemophilus influenzae [24] = assay: Ratio of Cmax to MIC in Haemophilus influenzae SR24169 clinical isolate based on area above the killing curve index by maximum antibacterial activity criteria based in vitro pharmacodynamic model; type: functional
Streptococcus pneumoniae [25] = assay: Antibacterial activity against erythromycin-resistant Streptococcus pneumoniae SR26143 clinical isolate expressing mefA gene by broth microdilution method; type: functional
Haemophilus influenzae [26] = assay: Ratio of Cmax to MIC in Haemophilus influenzae SR24169 clinical isolate based on area above the killing curve index by half maximum antibacterial activity criteria based in vitro pharmacodynamic model; type: functional
Streptococcus pneumoniae [27] = assay: Half maximum antibacterial activity against erythromycin-resistant Streptococcus pneumoniae SR26132 clinical isolate expressing ermB gene based on area above the killing curve index in vitro pharmacodynamic model; type: ADME, organism-based; conditions: in vivo
Streptococcus pneumoniae [28] = assay: Half maximum antibacterial activity against erythromycin-susceptible Streptococcus pneumoniae SR26229 clinical isolate based on viable cell reduction at 24 hrs index in vitro pharmacodynamic model; type: ADME, organism-based
Haemophilus influenzae [29] = assay: AUC (0 to 24 hrs) in Haemophilus influenzae SR24169 clinical isolate in vitro pharmacodynamic model; type: ADME, organism-based; design: time < 24 hr; conditions: in vivo
Haemophilus influenzae [30] = assay: Ratio of Cmax to MIC in Haemophilus influenzae SR24169 clinical isolate based on viable cell reduction at 24 hrs index by maximum antibacterial activity criteria based in vitro pharmacodynamic model; type: functional
Haemophilus influenzae [31] = assay: Cmax in Haemophilus influenzae SR24169 clinical isolate in vitro pharmacodynamic model; type: ADME, organism-based; conditions: in vivo
Haemophilus influenzae [32] = assay: Ratio of AUC (0 to 24 hrs) to MIC in Haemophilus influenzae SR24169 clinical isolate based on area above the killing curve index by half maximum antibacterial activity criteria based in vitro pharmacodynamic model; type: functional
Streptococcus pneumoniae [33] = assay: Cmax in erythromycin-resistant Streptococcus pneumoniae SR26143 clinical isolate expressing mefA gene in vitro pharmacodynamic model; type: ADME, organism-based; conditions: in vivo
Streptococcus pneumoniae [34] = assay: Minimum antibacterial activity against erythromycin-susceptible Streptococcus pneumoniae SR26229 clinical isolate based on area above the killing curve index in vitro pharmacodynamic model; type: ADME, organism-based; conditions: in vivo
Streptococcus pneumoniae [35] = assay: Maximum antibacterial activity against erythromycin-resistant Streptococcus pneumoniae SR26143 clinical isolate expressing mefA gene based on area above the killing curve index in vitro pharmacodynamic model; type: ADME, organism-based; conditions: in vivo
Streptococcus pneumoniae [36] = assay: Minimum antibacterial activity against erythromycin-resistant Streptococcus pneumoniae SR26143 clinical isolate expressing mefA gene based on viable cell reduction at 24 hrs index in vitro pharmacodynamic model; type: ADME, organism-based
Streptococcus pneumoniae [37] = assay: Ratio of AUC (0 to 24 hrs) to MIC in erythromycin-susceptible Streptococcus pneumoniae SR26229 clinical isolate by maximal efficacy criteria based in vitro pharmacodynamic model; type: functional
Streptococcus pneumoniae [38] = assay: Minimum antibacterial activity against erythromycin-resistant Streptococcus pneumoniae SR26132 clinical isolate expressing ermB gene based on viable cell reduction at 24 hrs index in vitro pharmacodynamic model; type: ADME, organism-based
Haemophilus influenzae [39] = assay: %TMIC in Haemophilus influenzae SR24169 clinical isolate based on area above the killing curve index by minimum antibacterial activity criteria based in vitro pharmacodynamic model; type: functional
Haemophilus influenzae [40] = assay: Antibacterial activity against Haemophilus influenzae SR24169 clinical isolate by broth microdilution method; type: functional
Streptococcus pneumoniae [41] = assay: Ratio of AUC (0 to 24 hrs) to MIC in erythromycin-resistant Streptococcus pneumoniae SR26132 clinical isolate expressing ermB gene by maximal efficacy criteria based in vitro pharmacodynamic model; type: functional
Haemophilus influenzae [42] = assay: Ratio of AUC (0 to 24 hrs) to MIC in Haemophilus influenzae SR24169 clinical isolate based on area above the killing curve index by minimum antibacterial activity criteria based in vitro pharmacodynamic model; type: functional
Haemophilus influenzae [43] = assay: Ratio of AUC (0 to 24 hrs) to MIC in Haemophilus influenzae SR24169 clinical isolate based on viable cell reduction at 24 hrs index by maximum antibacterial activity criteria based in vitro pharmacodynamic model; type: functional
Haemophilus influenzae [44] = assay: Ratio of Cmax to MIC in Haemophilus influenzae SR24169 clinical isolate based on viable cell reduction at 24 hrs index by minimum antibacterial activity criteria based in vitro pharmacodynamic model; type: functional
Streptococcus pneumoniae [45] = assay: Ratio of AUC (0 to 24 hrs) to MIC in erythromycin-susceptible Streptococcus pneumoniae SR26229 clinical isolate by bacteriostatic effect criteria based in vitro pharmacodynamic model; type: functional
Haemophilus influenzae [46] = assay: %TMIC in Haemophilus influenzae SR24169 clinical isolate based on area above the killing curve index by half maximum antibacterial activity criteria based in vitro pharmacodynamic model; type: functional
Streptococcus pneumoniae [47] = assay: AUC (0 to 24 hrs) in erythromycin-resistant Streptococcus pneumoniae SR26132 clinical isolate expressing ermB gene in vitro pharmacodynamic model; type: ADME, organism-based; design: time < 24 hr; conditions: in vivo
Haemophilus influenzae [48] = assay: Ratio of AUC (0 to 24 hrs) to MIC in Haemophilus influenzae SR24169 clinical isolate based on area above the killing curve index by maximum antibacterial activity criteria based in vitro pharmacodynamic model; type: functional
Streptococcus pneumoniae [49] = assay: Antibacterial activity against erythromycin-susceptible Streptococcus pneumoniae SR26229 clinical isolate by broth microdilution method; type: functional
Streptococcus pneumoniae [50] = assay: Half life in erythromycin-susceptible Streptococcus pneumoniae SR26229 clinical isolate in vitro pharmacodynamic model; type: ADME, organism-based; conditions: in vivo
Streptococcus pneumoniae [51] = assay: Maximum antibacterial activity against erythromycin-susceptible Streptococcus pneumoniae SR26229 clinical isolate based on viable cell reduction at 24 hrs index in vitro pharmacodynamic model; type: ADME, organism-based
Haemophilus influenzae [52] = assay: Half life in Haemophilus influenzae SR24169 clinical isolate in vitro pharmacodynamic model; type: ADME, organism-based; conditions: in vivo
Haemophilus influenzae [53] = assay: %TMIC in Haemophilus influenzae SR24169 clinical isolate based on area above the killing curve index by maximum antibacterial activity criteria based in vitro pharmacodynamic model; type: functional
Streptococcus pneumoniae [54] = assay: Maximum antibacterial activity against erythromycin-resistant Streptococcus pneumoniae SR26132 clinical isolate expressing ermB gene based on viable cell reduction at 24 hrs index in vitro pharmacodynamic model; type: ADME, organism-based
Haemophilus influenzae [55] = assay: Ratio of AUC (0 to 24 hrs) to MIC in Haemophilus influenzae SR24169 clinical isolate by maximal efficacy criteria based in vitro pharmacodynamic model; type: functional
Streptococcus pneumoniae [56] = assay: Cmax in erythromycin-susceptible Streptococcus pneumoniae SR26229 clinical isolate in vitro pharmacodynamic model; type: ADME, organism-based; conditions: in vivo

## CC[C@H]1OC(=O)[C@H](C)C(=O)[C@H](C)[C@@H](O[C@@H]2O[C@H](C)C[C@H](N(C)C)[C@H]2O)[C@@]2(C)C[C@@H](C)/C(=N\C(C)=O)[C@H](C)C(OC/C(=N\OCc3ccc(-n4cccn4)nc3)CO2)[C@]1(C)O (single isomer, unassigned)
Haemophilus influenzae [1]
  Ratio: 4.6778
Streptococcus pneumoniae [2]
  Cmax: 16 ng/mL
Streptococcus pneumoniae [3]
  Activity: 78.23
Streptococcus pneumoniae [4]
  Ratio: 4.66
Haemophilus influenzae [5]
  Ratio: -2.4461
Streptococcus pneumoniae [6]
  AUC: 140 ng·h/mL
Haemophilus influenzae [7]
  Ratio: 9.63
Haemophilus influenzae [8]
  Ratio: 0
Streptococcus pneumoniae [9]
  t1/2: 17.6 h
Streptococcus pneumoniae [10]
  t1/2: 17.6 h
Streptococcus pneumoniae [11]
  MIC: 0.25 µg/mL (≈ 0.297 µM)
Streptococcus pneumoniae [12]
  Activity: 2.64
Streptococcus pneumoniae [13]
  Activity: 16.64
Streptococcus pneumoniae [14]
  Ratio: 22.3
Streptococcus pneumoniae [15]
  Activity: 6.12
Haemophilus influenzae [16]
  Ratio: 10.1172
Streptococcus pneumoniae [17]
  Activity: 15.89
Streptococcus pneumoniae [18]
  Ratio: 15.2
Streptococcus pneumoniae [19]
  Activity: 5.11
Streptococcus pneumoniae [20]
  AUC: 70 ng·h/mL
Streptococcus pneumoniae [21]
  Activity: 9.96
Streptococcus pneumoniae [22]
  Activity: 84.15
Haemophilus influenzae [23]
  Ratio: -1.1805
Haemophilus influenzae [24]
  Ratio: 75.7785
Streptococcus pneumoniae [25]
  MIC: 0.125 µg/mL (≈ 0.149 µM)
Haemophilus influenzae [26]
  Ratio: 0.6894
Streptococcus pneumoniae [27]
  Activity: 8.75
Streptococcus pneumoniae [28]
  Activity: 9.35
Haemophilus influenzae [29]
  AUC: 8610 ng·h/mL
Haemophilus influenzae [30]
  Ratio: 6.0956
Haemophilus influenzae [31]
  Cmax: 506 ng/mL
Haemophilus influenzae [32]
  Ratio: 6.9338
Streptococcus pneumoniae [33]
  Cmax: 8 ng/mL
Streptococcus pneumoniae [34]
  Activity: 0
Streptococcus pneumoniae [35]
  Activity: 80.2
Streptococcus pneumoniae [36]
  Activity: 2.36
Streptococcus pneumoniae [37]
  Ratio: 16.3
Streptococcus pneumoniae [38]
  Activity: -2.14
Haemophilus influenzae [39]
  Ratio: 0
Haemophilus influenzae [40]
  MIC: 8 µg/mL (≈ 9.51 µM)
Streptococcus pneumoniae [41]
  Ratio: 22
Haemophilus influenzae [42]
  Ratio: 0
Haemophilus influenzae [43]
  Ratio: 6.4436
Haemophilus influenzae [44]
  Ratio: -2.3622
Streptococcus pneumoniae [45]
  Ratio: 9.01
Haemophilus influenzae [46]
  Ratio: 3.0676
Streptococcus pneumoniae [47]
  AUC: 280 ng·h/mL
Haemophilus influenzae [48]
  Ratio: 80.2825
Streptococcus pneumoniae [49]
  MIC: 0.063 µg/mL (≈ 0.0749 µM)
Streptococcus pneumoniae [50]
  t1/2: 17.6 h
Streptococcus pneumoniae [51]
  Activity: 6.22
Haemophilus influenzae [52]
  t1/2: 2.22 h
Haemophilus influenzae [53]
  Ratio: 79.0912
Streptococcus pneumoniae [54]
  Activity: 5.98
Haemophilus influenzae [55]
  Ratio: 10.8
Streptococcus pneumoniae [56]
  Cmax: 4 ng/mL
